The term melting point denotes the temperature, or range, at which the solid turns liquid.

This is an account of results in patent publication US20180368410A1, “MICROBIOCIDAL OXADIAZOLE DERIVATIVES” (SYNGENTA PARTICIPATIONS AG, priority 2015, published 2018).

In one series the test system is Uromyces viciae-Fabael. The series is described as follows: Uromyces viciae-fabae / field bean / leaf disc preventative (faba-bean rust). The note with it: foliar, 288 h, 100 ppm in the applied formulation, inoculated two hours after application, assessed 12 days after application, vs untreated control leaf discs, read-out: disease control. Type of series: in vivo, Uromyces viciae-fabae on field bean. The procedure:
Leaf disks or leaf segments of various plant species are cut from plants grown in a greenhouse. The cut leaf disks or segments are placed in multiwell plates (24-well format) onto water agar. The leaf disks are sprayed with a test solution before (preventative) or after (curative) inoculation. Compounds to be tested are prepared as DMSO solutions (max. 10 mg/ml) which are diluted to the appropriate concentration with 0.025% Tween20 just before spraying. The inoculated leaf disks or segments are incubated under defined conditions (temperature, relative humidity, light, etc.) according to the respective test system. A single evaluation of disease level is carried out 3 to 14 days after inoculation, depending on the pathosystem. Percent disease control relative to the untreated check leaf disks or segments is then calculated.
Field bean leaf discs are placed on water agar in multiwell plates (96-well format) and 10 μl of the formulated test compound diluted in acetone and a spreader pipetted onto the leaf disc. Two hours after application leaf discs are inoculated by spraying a spore suspension on the lower leaf surface. The leaf discs are incubated in a climate cabinet at 22° C. with 18 hour day and 70% relative humidity. The activity of a compound is assessed as percent disease control compared to untreated when an appropriate level of disease damage appears in untreated check leaf disks (12 days after application).
The following compounds at 100 ppm in the applied formulation give at least 80% disease control in this test when compared to untreated control leaf discs under the same conditions, which show extensive disease development.

The next series concerns Phakopsora pachyrhizi. The series is described as follows: Phakopsora pachyrhizi / soybean / leaf disc preventative (Asian soybean rust). Type of series: in vivo, Phakopsora pachyrhizi on soybean. The note with it: foliar, 200 ppm in the applied formulation, inoculated one day after application, assessed 12 to 14 days after application, vs untreated control leaf disks, read-out: disease control. A digest of the protocol:
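Read-out is percent disease control relative to untreated check discs, assessed once untreated discs show adequate disease, 12 to 14 days after application. Compounds, tested at 200 ppm in the applied formulation, are sprayed onto soybean leaf discs one day before inoculation with a spore suspension.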

For series [1], the system named is Puccinia recondita f. Sp. Tritici. The series is described as follows: Puccinia recondita f. sp. tritici / wheat / leaf disc preventative (brown rust). Type of series: in vivo, Puccinia recondita f. sp. tritici on wheat cv. Kanzler. The note with it: foliar, 200 ppm in the applied formulation, inoculated 1 day after application, assessed 7 to 9 days after application, vs untreated control leaf disks, read-out: disease control. A digest of the protocol: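 Wheat cv. Kanzler leaf segments on agar were sprayed with compound (DMSO stock diluted with 0.025% Tween20) 1 day before inoculation with spores. Segments were held at 19 °C, 75% rh, 12 h light/dark. Percent disease control versus untreated was scored 7–9 days after application.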

The test system of series [2] is Glomerella Lacenarium (Colletotrichum lacenarium). The series is described as follows: Glomerella lagenarium (Colletotrichum lagenarium) liquid culture / cucumber / preventative (anthracnose). Type of series: cell-based. The following applies: 20 ppm in the applied formulation, liquid culture in PDB, 24° C., inhibition of growth measured photometrically 3 to 4 days after application, vs untreated control, read-out: disease control. A digest of the protocol:
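Test compound in DMSO is placed in a microtiter plate, then potato dextrose broth containing conidia from cryogenic storage is added. Incubation runs at 24° C., and growth inhibition is read photometrically after 3 to 4 days.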

For series [3], the system named is Puccinia recondita f. Sp. Triticil. In words: Puccinia recondita f. sp. tritici / wheat / leaf disc curative (brown rust). Type of series: in vivo, Puccinia recondita f. sp. tritici on wheat cv. Kanzler. The following applies: foliar, 200 ppm in the applied formulation, applied 1 day after inoculation, assessed 6 to 8 days after application, vs untreated control leaf disks, read-out: disease control. A digest of the protocol: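 Segments of wheat (cultivar Kanzler) sit on agar and are spore-inoculated first; after one day in darkness at 19° C and 75% RH the diluted formulated compound is sprayed on. A 12 h photoperiod follows at the same temperature and humidity before disease is scored against untreated controls.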

In the case of `O=C(NCc1ccc(-c2noc(C(F)(F)F)n2)cc1)C1(c2ccc(Cl)cc2)CC1` [Compound 1.39, 1-(4-chlorophenyl)-N-[[4-[5-(trifluoromethyl)-1,2,4-oxadiazol-3-yl]phenyl]methyl] cyclopropanecarboxamide], in the series with Uromyces viciae-Fabael, the pest or weed control at 100 ppm is at least 80%. Besides, in the series on Phakopsora pachyrhizi, the pest or weed control at 200 ppm was at least 80%.
In turn, `O=C(NCc1ccc(-c2noc(C(F)(F)F)n2)nc1)c1ccccc1Cl` [Compound 1.95, 2-chloro-N-[[6-[5-(trifluoromethyl)-1,2,4-oxadiazol-3-yl]-3-pyridyl]methyl] benzamide] returned a melting point of 106 to 113 °C. The pest or weed control at 200 ppm in series [1] was at least 80%.
For `Cc1cccc(C)c1C(=O)NCc1ccc(-c2noc(C(F)(F)F)n2)cc1` [Compound 1.19, 2,6-dimethyl-N-[[4-[5-(trifluoromethyl)-1,2,4-oxadiazol-3-yl]phenyl]methyl]benzamide], the pest or weed control at 200 ppm (in series [1]; with Phakopsora pachyrhizi) was at least 80% throughout. In addition, the pest or weed control at 100 ppm in the series on Uromyces viciae-Fabael is at least 80%. Further, the inhibition of growth at 20 ppm in series [2] was at least 80%.
In the case of `O=C(NCc1ccc(-c2noc(C(F)(F)F)n2)cc1)c1ccccc1` [Compound 1.40, N-[[4-[5-(trifluoromethyl)-1,2,4-oxadiazol-3-yl]phenyl]methyl]benzamide], the pest or weed control at 200 ppm in series [1] and in series [3] was at least 80% throughout. For the same compound, the pest or weed control at 100 ppm in the series with Uromyces viciae-Fabael was at least 80%. The inhibition of growth at 20 ppm in series [2] was at least 80%.
For the compound `O=C(Cc1ccccc1)NCc1ccc(-c2noc(C(F)(F)F)n2)cc1` [Compound 1.26, 2-phenyl-N-[[4-[5-(trifluoromethyl)-1,2,4-oxadiazol-3-yl]phenyl]methyl]acetamide], the pest or weed control at 200 ppm (in series [1]; with Phakopsora pachyrhizi; in series [3]) was at least 80% each time. In addition, the pest or weed control at 100 ppm in the series on Uromyces viciae-Fabael is at least 80%. Further, the inhibition of growth at 20 ppm in series [2] is at least 80%.
As to `N#Cc1ccc(CC(=O)NCc2ccc(-c3noc(C(F)(F)F)n3)cc2)cc1` [Compound 1.30, 2-(4-cyanophenyl)-N-[[4-[5-(trifluoromethyl)-1,2,4-oxadiazol-3-yl]phenyl]methyl]acetamide], the pest or weed control at 200 ppm (in series [1]; in the series on Phakopsora pachyrhizi) was at least 80% in each case. Also, the pest or weed control at 100 ppm in the series on Uromyces viciae-Fabael is at least 80%.
On to `O=C(Cc1ccc(Cl)cc1)NCc1ccc(-c2noc(C(F)(F)F)n2)cc1` [Compound 1.29, 2-(4-chlorophenyl)-N-[[4-[5-(trifluoromethyl)-1,2,4-oxadiazol-3-yl]phenyl]methyl]acetamide], for which the pest or weed control at 200 ppm (in series [1]; in the series with Phakopsora pachyrhizi) was at least 80% each time. Besides, in the series on Uromyces viciae-Fabael, the pest or weed control at 100 ppm is at least 80%.
In turn, `O=C(NCCc1ccc(-c2noc(C(F)(F)F)n2)cc1)c1ccccc1Cl` [Compound 1.99, 2-chloro-N-[2-[4-[5-(trifluoromethyl)-1,2,4-oxadiazol-3-yl]phenyl]ethyl]benzamide] displayed a melting point of 133 to 140 °C. For the same compound, the pest or weed control at 200 ppm in series [1] was at least 80%. In addition, in the series on Phakopsora pachyrhizi, the pest or weed control at 200 ppm was at least 80%.
For the compound `O=C(CC1CC1(F)F)NCc1ccc(-c2noc(C(F)(F)F)n2)cc1` (stereo not drawn) [Compound 1.32, 2-(2,2-difluorocyclopropyl)-N-[[4-[5-(trifluoromethyl)-1,2,4-oxadiazol-3-yl]phenyl]methyl]acetamide], the pest or weed control at 200 ppm (in series [1]; in the series on Phakopsora pachyrhizi; in series [3]) was at least 80% throughout. In addition, in the series with Uromyces viciae-Fabael, the pest or weed control at 100 ppm was at least 80%. For the same compound, in series [2], the inhibition of growth at 20 ppm is at least 80%.
With `O=C(NCc1ccc(-c2noc(C(F)(F)F)n2)cc1)C1CCSCC1` [Compound 1.27, N-[[4-[5-(trifluoromethyl)-1,2,4-oxadiazol-3-yl]phenyl]methyl] tetrahydrothiopyran-4-carboxamide], the pest or weed control at 200 ppm (in series [1]; in the series with Phakopsora pachyrhizi) was at least 80% throughout. In the series with Uromyces viciae-Fabael, the pest or weed control at 100 ppm is at least 80%.
In turn, `O=C(NCc1ccc(-c2noc(C(F)(F)F)n2)nc1)C1CCCO1` (stereo not drawn) [Compound 1.94, N-[[6-[5-(trifluoromethyl)-1,2,4-oxadiazol-3-yl]-3-pyridyl]methyl] tetrahydrofuran-2-carboxamide] came in with a melting point of 84 to 88 °C. The pest or weed control at 200 ppm in series [3] was at least 80%.
Take `O=C(Cc1cccnc1)NCc1ccc(-c2noc(C(F)(F)F)n2)cc1` [Compound 1.17, 2-(3-pyridyl)-N-[[4-[5-(trifluoromethyl)-1,2,4-oxadiazol-3-yl]phenyl]methyl]acetamide]: the pest or weed control at 200 ppm in series [1] and in series [3] was at least 80% throughout. In addition, the pest or weed control at 100 ppm in the series on Uromyces viciae-Fabael is at least 80%.
`COc1ccccc1C(=O)NCc1ccc(-c2noc(C(F)(F)F)n2)cc1` [Compound 1.6, 2-methoxy-N-[[4-[5-(trifluoromethyl)-1,2,4-oxadiazol-3-yl]phenyl]methyl]benzamide]: the pest or weed control at 200 ppm (in series [1]; with Phakopsora pachyrhizi; in series [3]) was at least 80% throughout. In the series with Uromyces viciae-Fabael, the pest or weed control at 100 ppm is at least 80%. Besides, the inhibition of growth at 20 ppm in series [2] is at least 80%.
Regarding `O=C(NCc1ccc(-c2noc(C(F)(F)F)n2)cc1)c1ccc(Cl)cc1` [Compound 1.36, 4-chloro-N-[[4-[5-(trifluoromethyl)-1,2,4-oxadiazol-3-yl]phenyl]methyl]benzamide], the pest or weed control at 200 ppm in series [1] was at least 80%. In addition, the pest or weed control at 100 ppm in the series with Uromyces viciae-Fabael was at least 80%. For the same compound, in series [2], the inhibition of growth at 20 ppm was at least 80%.
With `O=C(NCc1ccc(-c2noc(C(F)(F)F)n2)cc1)C1(c2ccccc2)CC1` [Compound 1.14, 1-phenyl-N-[[4-[5-(trifluoromethyl)-1,2,4-oxadiazol-3-yl]phenyl]methyl] cyclopropanecarboxamide], the pest or weed control at 200 ppm in series [1] is at least 80%. The pest or weed control at 100 ppm in the series on Uromyces viciae-Fabael is at least 80%. In addition, the inhibition of growth at 20 ppm in series [2] is at least 80%.
For `O=C(NCc1ccc(-c2noc(C(F)(F)F)n2)cc1)C1CCOC1` (stereo not drawn) [Compound 1.18, N-[[4-[5-(trifluoromethyl)-1,2,4-oxadiazol-3-yl]phenyl]methyl] tetrahydrofuran-3-carboxamide], the pest or weed control at 200 ppm (in series [1]; in the series with Phakopsora pachyrhizi; in series [3]) was at least 80% throughout. Also, the pest or weed control at 100 ppm in the series on Uromyces viciae-Fabael was at least 80%. The inhibition of growth at 20 ppm in series [2] was at least 80%.
Regarding `O=C(NCc1ccc(-c2noc(C(F)(F)F)n2)cc1)C1CC1c1ccccc1` (stereo not drawn) [Compound 1.15, 2-phenyl-N-[[4-[5-(trifluoromethyl)-1,2,4-oxadiazol-3-yl]phenyl]methyl] cyclopropanecarboxamide], the pest or weed control at 200 ppm in series [1] was at least 80%. Besides, in the series on Uromyces viciae-Fabael, the pest or weed control at 100 ppm was at least 80%. Besides, the inhibition of growth at 20 ppm in series [2] was at least 80%.
Regarding `COc1ccccc1CC(=O)NCc1ccc(-c2noc(C(F)(F)F)n2)cc1` [Compound 1.23, 2-(2-methoxyphenyl)-N-[[4-[5-(trifluoromethyl)-1,2,4-oxadiazol-3-yl]phenyl]methyl]acetamide], the pest or weed control at 200 ppm in series [1] and in series [3] was at least 80% throughout. Also, in the series with Uromyces viciae-Fabael, the pest or weed control at 100 ppm is at least 80%.
On to `COc1cccc(C2(C(=O)NCc3ccc(-c4noc(C(F)(F)F)n4)cc3)CC2)c1` [Compound 1.37, 1-(3-methoxyphenyl)-N-[[4-[5-(trifluoromethyl)-1,2,4-oxadiazol-3-yl]phenyl]methyl] cyclopropanecarboxamide], for which the pest or weed control at 100 ppm in the series on Uromyces viciae-Fabael was at least 80%. Besides, the pest or weed control at 200 ppm in series [3] was at least 80%.
